Results from patent publication US11535594B2, “Microbiocidal picolinamide derivatives” (Syngenta Participations AG, priority 2017, dated 2022).

How the values were obtained:
[1] = tested on: Puccinia Recondite f. Sp. Tritici; assay: Puccinia recondita f. sp. tritici / wheat / leaf disc preventative (brown rust); format: in vivo; conditions: foliar, wheat leaf segments cv. Kanzler, inoculated 1 day after application, assessed 7-9 days after application, compared to untreated, read-out: disease control
Protocol: Puccinia Recondite f. Sp. Tritici/Wheat/Leaf Disc Preventative (Brown Rust) Wheat leaf segments cv. Kanzler are placed on agar in multiwell plates (24-well format) and sprayed with the formulated test compound diluted in water. The leaf disks are inoculated with a spore suspension of the fungus 1 day after application. The inoculated leaf segments are incubated at 19° C. and 75% rh under a light regime of 12 h light/12 h darkness in a climate cabinet and the activity of a compound is assessed as percent disease control compared to untreated when an appropriate level of disease damage appears in untreated check leaf segments (7-9 days after application).

[2] = tested on: Magnaporthe grisea (Pyricularia oryzae); assay: whole plant or invertebrate; format: in vivo; conditions: foliar, read-out: disease control
[3] = tested on: Mycosphaerella arachidis (Cercospora arachidicola); assay: Mycosphaerella arachidis (Cercospora arachidicola) / liquid culture (early leaf spot); format: cell-based; conditions: PDB potato dextrose broth, 24° C., 4-5 days after application, compared to untreated checks, read-out: disease control (inhibition of growth, photometric)
Protocol: (§1) Mycosphaerella arachidis (Cercospora arachidicola)/Liquid Culture (Early Leaf Spot) Conidia of the fungus from cryogenic storage are directly mixed into nutrient broth (PDB potato dextrose broth). After placing a (DMSO) solution of test compound into a microtiter plate (96-well format), the nutrient broth containing the fungal spores is added. The test plates are incubated at 24° C. and the inhibition of growth is determined photometrically 4-5 days after application.

[4] = tested on: Phaeosphaeria nodorum (Septoria nodorum); assay: Phaeosphaeria nodorum (Septoria nodorum) / wheat / leaf disc preventative (glume blotch); format: in vivo; conditions: Parastagonospora nodorum, foliar, 120 h, wheat leaf segments cv. Kanzler, inoculated 2 days after application, assessed 5-7 days after application, compared to untreated, read-out: disease control
Protocol: Phaeosphaeria nodorum (Septoria nodorum)/Wheat/Leaf Disc Preventative (Glume Blotch) Wheat leaf segments cv. Kanzler are placed on agar in a multiwell plate (24-well format) and sprayed with the formulated test compound diluted in water. The leaf disks are inoculated with a spore suspension of the fungus 2 days after application. The inoculated test leaf disks are incubated at 20° C. and 75% rh under a light regime of 12 h light/12 h darkness in a climate cabinet and the activity of a compound is assessed as percent disease control compared to untreated when an appropriate level of disease damage appears in untreated check leaf disks (5-7 days after application).

[5] = tested on: Blumeria graminis f. Sp. Tritici (Erysiphe Graminis f. Sp. Tritici); assay: Blumeria graminis f. sp. tritici / wheat / leaf disc preventative (powdery mildew on wheat); format: in vivo; conditions: 200 ppm; wheat leaf segments cv. Kanzler, inoculated 1 day after application, assessed 6-8 days after application, compared to untreated
Protocol: Blumeria graminis f. Sp. Tritici (Erysiphe Graminis f. Sp. Tritici)/Wheat/Leaf Disc Preventative (Powdery Mildew on Wheat)
Wheat leaf segments cv. Kanzler are placed on agar in a multiwell plate (24-well format) and sprayed with the test compound formulated with DMSO and Tween20 and diluted in water. The leaf disks are inoculated by shaking powdery mildew infected plants above the test plates 1 day after application. The inoculated leaf disks are incubated at 20° C. and 60% rh under a light regime of 24 h darkness followed by 12 h light/12 h darkness in a climate chamber and the activity of a compound is assessed as percent disease control compared to untreated when an appropriate level of disease damage appears on untreated check leaf segments (6-8 days after application).

[6] = tested on: Mycosphaerella Graminicola (Septoria tritici); assay: Mycosphaerella graminicola (Septoria tritici) / liquid culture (Septoria blotch); format: cell-based; conditions: Zymoseptoria tritici, PDB potato dextrose broth, 24° C., 4 to 5 days after application, compared to untreated checks, read-out: disease control (inhibition of growth, photometric)
Protocol: as §1, with “Graminicola (Septoria tritici)/Liquid” for “arachidis (Cercospora arachidicola)/Liquid”, “(Septoria Blotch)” for “(Early Leaf Spot)”, “4 to 5” for “4-5”

Alternaria solani = Alternaria solani / tomato / leaf disc (early blight); format: in vivo; conditions: 200 ppm; tomato leaf disks cv. Baby, inoculated 2 days after application, assessed 5-7 days after application, compared to untreated
Protocol: Alternaria solani/Tomato/Leaf Disc (Early Blight) Tomato leaf disks cv. Baby are placed on agar in multiwell plates (24-well format) and sprayed with the formulated test compound diluted in water. The leaf disks are inoculated with a spore suspension of the fungus 2 days after application. The inoculated leaf disks are incubated at 23° C./21° C.

[7] = tested on: Monographella nivalis (Microdochium nivale); assay: Monographella nivalis (Microdochium nivale) / liquid culture (foot rot cereals); format: cell-based; conditions: PDB potato dextrose broth, 24° C., 4-5 days after application, compared to untreated checks, read-out: disease control (inhibition of growth, photometric)
Protocol: as §1, with “Monographella nivalis (Microdochium nivale)/Liquid” for “Mycosphaerella arachidis (Cercospora arachidicola)/Liquid”, “(Foot Rot Cereals)” for “(Early Leaf Spot)”

[8] = tested on: Glomerella Lagenarium (Colletotrichum lagenarium); assay: Glomerella lagenarium (Colletotrichum lagenarium) / liquid culture (anthracnose); format: cell-based; conditions: Colletotrichum orbiculare, PDB potato dextrose broth, 24° C., 3 to 4 days after application, compared to untreated checks, read-out: disease control (inhibition of growth, photometric)
Protocol: as §1, with “Glomerella Lagenarium (Colletotrichum lagenarium)/Liquid” for “Mycosphaerella arachidis (Cercospora arachidicola)/Liquid”, “(Anthracnose)” for “(Early Leaf Spot)”, “measured” for “determined”, “3 to 4” for “4-5”

[9] = tested on: Botryotinia fuckeliana (Botrytis cinerea); assay: Botryotinia fuckeliana (Botrytis cinerea) / liquid culture (gray mould); format: cell-based; conditions: Vogels broth, 24° C., 3-4 days after application, compared to untreated checks, read-out: disease control (inhibition of growth, photometric)
Protocol: as §1, with “Botryotinia fuckeliana (Botrytis cinerea)/Liquid” for “Mycosphaerella arachidis (Cercospora arachidicola)/Liquid”, “(Gray Mould)” for “(Early Leaf Spot)”, “(Vogels” for “(PDB potato dextrose”, “3-4” for “4-5”

Structure (SMILES) | pest or weed control at 200 ppm [1] | pest or weed control at 200 ppm [2] | inhibition at 200 ppm [3] | pest or weed control at 200 ppm [4] | disease control [5] | inhibition at 200 ppm [6] | control of Alternaria solani (Alternaria solani) | inhibition at 200 ppm [7] | inhibition at 200 ppm [8] | inhibition at 200 ppm [9]
COc1ccnc(C(=O)N[C@@H](C)C(=O)ON(C)C(c2ccccc2)c2ccccc2)c1OC(C)=O [I.m.13, [benzhydryl(methyl)amino] (2S)-2-[(3-acetoxy-4-methoxy-pyridine-2-carbonyl)amino]propanoate] | ≥ 80% | ≥ 80% | ≥ 80% | ≥ 80% | at least 80% | ≥ 80% |  |  |  | 
COc1ccnc(C(=O)N[C@@H](C)C(=O)ON(C)C(C)(c2ccccc2)c2ccc(Cl)cc2)c1O (stereo partly drawn) [I.o.02, [[1-(4-chlorophenyl)-1-phenyl-ethyl]-methyl-amino] (2S)-2-[(3-hydroxy-4-methoxy-pyridine-2-carbonyl)amino]propanoate] | ≥ 80% | ≥ 80% | ≥ 80% | ≥ 80% |  | ≥ 80% | at least 80% |  |  | 
COc1ccnc(C(=O)N[C@@H](C)C(=O)ON(C)C(C)(c2ccc(Cl)cc2)c2ccc(Cl)cc2)c1OC(C)=O [I.u.14, [1,1-bis(4-chlorophenyl)ethyl-methyl-amino] (2S)-2-[(3-acetoxy-4-methoxy-pyridine-2-carbonyl)amino]propanoate] | ≥ 80% | ≥ 80% | ≥ 80% | ≥ 80% |  | ≥ 80% |  | ≥ 80% | ≥ 80% | ≥ 80%
